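Five concentrations, 48 hours, 96-well plates. At the TGI there is no net growth.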 Peptide text beside a SMILES is read from it. * marks the point of attachment. OSu = O=C1CCC(=O)N1O*; OBn = c1ccc(CO*)cc1; Bn = c1ccc(C*)cc1

Drawing on PubChem BioAssay (NCI), this text covers TGI for 14 compounds.

Holding throughout (assay): NCI-60 cell line screen, 48 h
Experiment [1] concerns DU-145 prostate.
For experiment [2], the system named is IGROV1 ovarian.
Experiment [3] concerns M14 melanoma.
In experiment [4] the test system is MCF7 breast.
Experiment [5] has as its system MOLT-4 leukemia.
In experiment [6] the test system is OVCAR-4 ovarian.
Experiment [7] concerns PC-3 prostate.
In experiment [8] the test system is SK-MEL-2 melanoma.
The test system of experiment [9] is U251 CNS.
Experiment [10] concerns K-562 leukemia.

As for `C/C(=N\NC(=O)N/N=C(\C)c1ccccn1)c1ccccn1`, the TGI in [1], in experiment [2], in experiment [3], in experiment [4], in experiment [5] and in experiment [6] was more than 100 µM throughout. Besides, the TGI in experiment [7], in [8] and in experiment [9] was more than 100 µM in each case.

In the case of `CCOC(=O)C1=CN(C(=O)c2ccccc2)CCC1Cc1ccccc1` (stereo unspecified), the TGI is more than 100 µM in [1]; more than 100 µM in experiment [2]; 77.3 µM in [10]; 37.1 µM in [3]; 64 µM in experiment [4]; 38.5 µM in experiment [5]. Moreover, the TGI in experiment [6] is more than 100 µM; in experiment [7] it was 78.1 µM; in [8], 35.9 µM; in experiment [9], 51.9 µM.

On to `CC(CN(C)C)C(=O)/C=C/c1ccc(Cl)c(Cl)c1` (stereo unspecified), for which the TGI in [1] is more than 100 µM; in experiment [2], 3.73 µM; in experiment [10], more than 100 µM; in experiment [3] it was 5.13 µM; in [4], 0.929 µM; in [5], more than 100 µM. Besides, the TGI in experiment [6] turned out to be 19 µM; in [7], 2.25 µM; in experiment [8], 4.19 µM; in experiment [9], 2.51 µM.

Regarding `Nc1ccc(-c2nc3cc(F)ccc3s2)cc1`, the TGI in experiment [1] is more than 100 µM; in experiment [2], more than 77.9 µM; in experiment [10], more than 100 µM; in [3] it was more than 100 µM; in experiment [4] it was more than 63.2 µM; in experiment [5] it was more than 100 µM. The TGI in experiment [6] was more than 100 µM; in [7], 45.8 µM; in [8], more than 100 µM; in experiment [9], more than 80 µM.

Regarding `Cc1[nH]c(=O)[nH]c(=O)c1C(=O)N(CCO)Cc1ccccc1`, the TGI in [1], in [2], in experiment [10], in experiment [3], in [4] and in experiment [5] was more than 100 µM throughout. In addition, the TGI is 99.7 µM in experiment [6], 94.8 µM in experiment [7], more than 100 µM in experiment [8] and more than 100 µM in experiment [9].

Take `COc1cnnc2c(C)c(-c3ccccc3)nn12`: the TGI in experiment [1], in experiment [2], in experiment [10], in [3], in experiment [4] and in experiment [5] was more than 100 µM each time. In addition, the TGI in [6], in experiment [7], in experiment [8] and in [9] was more than 100 µM in each case.

For `CC(C)CC(NC(=O)C(N)CCC(=O)OCc1ccccc1)C(=O)NC(COCc1ccccc1)C(=O)NC(Cc1ccccc1)C(=O)ON1C(=O)CCC1=O` (stereo unspecified) (H-E(OBn)LS(Bn)F-OSu; configuration not given here), the TGI was more than 100 µM in experiment [1]; 72.6 µM in experiment [2]; more than 100 µM in experiment [3]; 78.5 µM in [4]; 62.8 µM in experiment [5]; more than 100 µM in [6]. Also, the TGI in experiment [7] amounted to 63.2 µM; in experiment [8] it was 65.6 µM; in [9] it was 68.5 µM.

For the compound `CCOC(=O)c1ccc(NC(NC(=O)CC)(C(F)(F)F)C(F)(F)F)cc1`, the TGI in experiment [1], in experiment [2], in [10], in experiment [3], in experiment [4] and in experiment [5] was more than 100 µM throughout. The TGI in experiment [7], in experiment [8] and in [9] was more than 100 µM throughout.

For `CCOC(=O)/C=C1/Nc2cc(F)c(F)cc2NC1=O`, the TGI in experiment [1], in experiment [10], in experiment [3], in experiment [4], in [5] and in [6] was more than 100 µM each time. Further, the TGI in experiment [7], in experiment [8] and in experiment [9] was more than 100 µM each time.

Regarding `O=[N+]([O-])c1cc(Cl)ccc1S(=O)(=O)c1cc(Cl)cc2c1NCCC2`, the TGI in [1], in experiment [2], in [10], in [3], in experiment [4] and in [5] was more than 100 µM each time. Moreover, the TGI in experiment [6], in [7] and in experiment [8] was more than 100 µM each time.

For `CC(=O)C(C(=O)C(C)(C)C)C(=O)C(C)(C)C`, the TGI in experiment [1], in [10], in experiment [3], in experiment [4], in experiment [5] and in experiment [6] was more than 100 µM in each case. Moreover, the TGI in [7], in experiment [8] and in [9] was more than 100 µM throughout.

With `C1=C[C@]2(CCC13OCCO3)COc1ccccc12`, the TGI in experiment [1], in [10], in experiment [3], in experiment [4], in experiment [5] and in experiment [6] was more than 100 µM throughout. Moreover, the TGI in experiment [7], in experiment [8] and in [9] was more than 100 µM in each case.

`CN(C)/C=N/S(=O)(=O)c1nn2c(C=O)c(-c3cc4ccccc4oc3=O)nc2s1`: the TGI in experiment [1] was more than 36.6 µM; in experiment [2], 25.1 µM; in experiment [10] it was more than 24.4 µM; in experiment [4] it was more than 36.6 µM; in [5], more than 20.6 µM; in experiment [6], 28.3 µM. Also, the TGI was more than 48.5 µM in [7], 40.1 µM in experiment [8] and more than 42.6 µM in experiment [9].

On to `Cc1ccc(CC(=O)Nc2ccc(NC(=O)CNC(=O)/C=C/c3ccc(-c4ccccc4)cc3)cc2C(=O)c2ccccc2)cc1`, for which the TGI in experiment [1] stood at 7.54 µM; in experiment [2], 21.7 µM; in experiment [10], 10.3 µM; in experiment [3], 17.3 µM; in experiment [4], 3.69 µM; in [5], 15.3 µM. The TGI worked out at 4.07 µM in [7], 35.3 µM in experiment [8] and 8.67 µM in experiment [9].
